Laboratory results reported in publication PMC10804407, “Rombocin, a Short Stable Natural Nisin Variant, Displays Selective Antimicrobial Activity against Listeria monocytogenes and Employs a Dual Mode of Action to Kill Target Bacterial Strains” (ACS Synthetic Biology, 2024).
≈ marks a conversion by molar mass, not a printed value.

What was measured:
L. monocytogenes LK132 = type: cell-based, Listeria monocytogenes; conditions: LK132
Method: (§1) Each experiment was performed in triplicate.

[1] = test system: L. monocytogenes LMG10470; type: cell-based, Listeria monocytogenes; conditions: LMG10470
Method: as §1

L. monocytogenes TT82E = type: cell-based, Listeria monocytogenes; conditions: TT82E
Method: as §1

L. lactis MG1363 [2] = type: cell-based, Lactococcus lactis; conditions: MG1363
Method: as §1

[3] = Thermal stability by residual antimicrobial activity; type: physicochemical; conditions: residual antimicrobial activity vs L. lactis 1363, agar well, triplicate
Method: To investigate the impact of proteolytic enzymes, pH, and temperature on the antimicrobial activity, a representative strain of L. lactis 1363 was utilized. For the proteolytic enzyme assay, 40 μL of peptide (1 mg/mL) was incubated with or without final concentrations of 1 mg/mL proteolytic enzymes at room temperature for 3 h, followed by an activity test in the agar well. To determine pH stability, the pH was adjusted to 2, 4, 7, and 10 using 1 M HCl or NaOH. The temperature stability was assessed by incubating the peptide at 22, 50, 70, and 90 °C for a specified duration. All experiments were performed in triplicate.
Overnight cultures of the test strains were inoculated at a final concentration of 0.1% (v/v) into melted LB agar at 45 °C and then poured onto plates. After solidification, 8 mm wells were created and filled with 40 μL of the lantibiotic solution (1 mg/mL). The lantibiotics were activated by adding 5 μL of NisP directly to the well. The plates were then incubated overnight at 30 °C, and the zone of inhibition was measured. Zone diameters were calculated by subtracting the area of the well (πr^2) from the area of the zone (πr^2) and reported in millimeters. To determine the peptide concentration, purified and lyophilized peptides were resuspended in 0.05% aqueous acetic acid solution and quantified by HPLC following the protocol described by Schmitt et al.[44] […]

L. lactis MG1363 [4] = assay: Time-kill assay; type: cell-based, Lactococcus lactis; conditions: 5-fold MIC
Method: The bactericidal activity of nisin, nisin(1–22), and rombocin was evaluated according to a previously described procedure based on Guo et al.[38] Briefly, an overnight culture of L. lactis MG1363 was diluted 50-fold in GM17 medium and incubated at 30 °C. The bacteria were grown until reaching an optical density at 600 nm (OD600) of 0.5, at which point the cell concentration was adjusted to 5 × 10^5 CFU/mL. Subsequently, the bacteria were challenged with a 5-fold MIC of each peptide. A control sample of an untreated cell suspension was included. At specific time points, 50 μL aliquots were collected, and undiluted and 10-fold serially diluted suspensions were plated on GM17 agar. The plates were incubated overnight at 30 °C, and the resulting colonies were counted and calculated as colony-forming units per milliliter (CFU/mL). Both assays were performed in triplicate to ensure reproducibility.

L. lactis = assay: Potassium ion efflux assay (PBFI probe); type: cell-based, Lactococcus lactis; conditions: 5× MIC, 10 mM HEPES pH 7.2 with 0.5% glucose, 10 μM PBFI
Method: To perform the K^+ release assay, we used the K^+-specific fluorescent probe PBFI. L. lactis was cultured in GM17 until the OD600 reached 0.6, after which the cells were harvested (5000g, 5 min) and washed twice with 10 mM HEPES (pH 7.2) with 0.5% glucose. The cells were then resuspended in the same buffer containing 10 μM PBFI. Data were analyzed using a Varioskan LUX Multimode Microplate Reader; cells were excited at 346 nm, and the fluorescence emission was measured at 505 nm to establish a baseline signal before the addition of 5-fold MIC antibiotics, after which data were collected. Nisin was used as a positive control.

C=C1NC(=O)[C@H]([C@@H](C)CC)NC(=O)C(NC(=O)C(=CC)NC(=O)[C@@H](N)[C@@H](C)CC)CSC[C@@H](C(=O)NC2C(=O)N[C@@H](C)C(=O)NCC(=O)N[C@H](C(=O)N[C@H](C(=O)NC3C(=O)NCC(=O)N[C@@H](C(C)C)C(=O)N[C@@H]([C@@H](C)CC)C(=O)N[C@@H](CCSC)C(=O)NC(=CC)C(=O)N[C@H](C(=O)N[C@@H](CCSC)C(=O)NC4CSC[C@@H](C(=O)N[C@@H](CCCCN)C(=O)O)NC(=O)CNC(=O)[C@H](CC(N)=O)NC4=O)CSC3C)[C@@H](C)CC)CSC2C)NC(=O)[C@H](CC(C)C)NC1=O (stereo partly drawn) [rombocin A]
MIC (L. monocytogenes LK132): 25 µg/mL (≈ 10.5 µM)
MIC [1]: 25 µg/mL (≈ 10.5 µM)
MIC (L. monocytogenes TT82E): 12,5 μg/mL
MIC (L. lactis MG1363 [2]): 0,78 μg/mL
incubation time to complete loss of activity ([3]; 90 °C): 7 h
reduction in activity ([3]; temperatures between 22 and 50 °C, up to 10 h): less than 30%
time to complete killing (L. lactis MG1363 [4]; L. lactis MG1363, 5 × 10^5 CFU/mL, CFU counting, triplicate): 18 h
bacteriostatic or bactericidal activity (L. lactis MG1363 [4]; L. lactis, time-dependent killing): strong bactericidal activity
release of intracellular potassium ions (PBFI fluorescence) (L. lactis): did not have this effect
